In patent publication US5081114A, “Steroids” (Roussel Uclaf, priority 1989, dated 1992):

Target: T1, aromatase (Homo sapiens, UniProt P11511)
T1 construct: This supernatant was subjected to an ultracentrifugation stage for 90 minutes at 105,000 g to obtain the microsomal deposit; from tissue; host or cells: human placenta, microsomes
T1 sequence (P11511 1-503): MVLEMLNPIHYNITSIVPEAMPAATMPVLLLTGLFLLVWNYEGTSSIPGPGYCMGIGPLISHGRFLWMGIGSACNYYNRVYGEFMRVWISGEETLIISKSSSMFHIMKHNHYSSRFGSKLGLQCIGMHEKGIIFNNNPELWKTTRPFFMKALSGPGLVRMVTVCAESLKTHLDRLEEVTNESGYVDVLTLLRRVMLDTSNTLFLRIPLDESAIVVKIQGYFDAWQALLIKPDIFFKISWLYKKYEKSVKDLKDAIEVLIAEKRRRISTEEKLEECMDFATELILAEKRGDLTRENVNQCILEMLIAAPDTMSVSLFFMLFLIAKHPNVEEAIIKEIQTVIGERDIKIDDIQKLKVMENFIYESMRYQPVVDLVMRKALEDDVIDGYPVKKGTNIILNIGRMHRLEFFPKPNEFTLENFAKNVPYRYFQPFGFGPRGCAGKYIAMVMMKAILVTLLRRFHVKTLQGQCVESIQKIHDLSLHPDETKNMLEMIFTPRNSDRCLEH
Test: Inhibition of aromatase in placental microsomes (measurement of the CI50)
Assay type: biochemical
Conditions: human placental microsomes (25 microgramms of proteins per test); 60 nM Androstenedione with 1β-2β-(H^3)-Androstenedione; NADPH; pH=7.2; 37° C., 10 minutes; tritiated water release; read-out: CI50 (concentration of the inhibitor necessary to reduce the enzymatic activity by 50%)
Procedure: Inhibition dependent on the concentration (measurement of the CI50 =concentration of the inhibitor necessary to reduce the enzymatic activity by 50%).
Human placentas were used which were washed one hour at most after delivery, then perfused with physiological serum (5 liters) via the umbilical vein, then deep-frozen at -40° C.
1) Obtaining the placental microsomes
The placentas were thawed out at 4° C., then homogenized (1:3) in a 10 mM phosphate buffer, pH=7.0 containing 100 milimoles of potassium chloride (KCl), 10 millimoles of dithiothreitol (DTT), 10 millimoles of ethylenediaminetetra-acetic acid (EDTA), 40 millimoles of nicotinamide and 250 millimoles of sucrose. The homogenates were then subjected to different phases of centrifugation until a "9000 g" supernatant was obtained (corresponding to cytosol and to endosplasmic reticulum). […] The protein concentration of the microsomal suspension was determined by the BRADFORD method [BRADFORD, Anal. Biochem., Voml. […]
Then the enzymatic reaction was very rapidly initiated by the addition of 10 microliters of reduced nicotinamide adenine dinucleotide phosphate (NADPH) solubilized in water. […] After centrifugation, and for each tube, 100 microliters of supernatant was removed and counted in the presence of a scintillating liquid. […]

SMILES: CC12CC=C3C(CCC4=CC(=O)CCC43CC=O)C1CCC2=O (stereo not shown) [Example 3, ^4,9(11) -androstadiene-3,17-dione-19-carboxaldehyde]
- IC50: 85 nM
